Laboratory results reported in the supplement of paper PMC10307832.

Assays:
Experiment in all cases: relative viability (nuclei count vs DMSO), 5 days (fraction); higher = more cells survive
PAC-1 + Trametinib = compound: C=CCc1cccc(/C=N/NC(=O)CN2CCN(Cc3ccccc3)CC2)c1O [PAC-1] + CC(=O)Nc1cccc(-n2c(=O)n(C3CC3)c(=O)c3c(Nc4ccc(I)cc4F)n(C)c(=O)c(C)c32)c1 [Trametinib] (partner 0.02 µM)
Outline: (§1)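 Relative viability is defined as nuclei in treated wells over nuclei in vehicle wells. Duplicate plates were run and medians reported. Lung cancer cell lines in 1536-well plates were dosed by pin tool one day after seeding, with one drug or with a fixed anchor-drug dose plus five library-drug doses (not always all listed) in √10 steps, and nuclei were counted after 5 days.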

BMX-IN-1 + Navitoclax = compound: C=CC(=O)Nc1cc(-n2c(=O)ccc3cnc4ccc(-c5ccc(NS(C)(=O)=O)cc5)cc4c32)ccc1C [BMX-IN-1] + CC1(C)CCC(c2ccc(Cl)cc2)=C(CN2CCN(c3ccc(C(=O)NS(=O)(=O)c4ccc(N[C@H](CCN5CCOCC5)CSc5ccccc5)c(S(=O)(=O)C(F)(F)F)c4)cc3)CC2)C1 [Navitoclax] (partner 0.5 µM)
Outline: as §1

BMX-IN-1 + Alpelisib = compound: C=CC(=O)Nc1cc(-n2c(=O)ccc3cnc4ccc(-c5ccc(NS(C)(=O)=O)cc5)cc4c32)ccc1C [BMX-IN-1] + Cc1nc(NC(=O)N2CCC[C@H]2C(N)=O)sc1-c1ccnc(C(C)(C)C(F)(F)F)c1 [Alpelisib] (partner 2 µM)
Outline: as §1

PAC-1 + Dasatinib = compound: C=CCc1cccc(/C=N/NC(=O)CN2CCN(Cc3ccccc3)CC2)c1O [PAC-1] + Cc1nc(Nc2ncc(C(=O)Nc3c(C)cccc3Cl)s2)cc(N2CCN(CCO)CC2)n1 [Dasatinib] (partner 0.075 µM)
Outline: as §1

BMX-IN-1 + Foretinib = compound: C=CC(=O)Nc1cc(-n2c(=O)ccc3cnc4ccc(-c5ccc(NS(C)(=O)=O)cc5)cc4c32)ccc1C [BMX-IN-1] + COc1cc2c(Oc3ccc(NC(=O)C4(C(=O)Nc5ccc(F)cc5)CC4)cc3F)ccnc2cc1OCCCN1CCOCC1 [Foretinib] (partner 0.25 µM)
Outline: as §1

| Cell Line | relative viability (PAC-1 + Trametinib; first compound 0.02 µM) | relative viability (PAC-1 + Trametinib; first compound 0.06325 µM) | relative viability (PAC-1 + Trametinib; first compound 0.2 µM) | relative viability (PAC-1 + Trametinib; first compound 2 µM) | relative viability (BMX-IN-1 + Navitoclax; first compound 0.02 µM) | relative viability (BMX-IN-1 + Navitoclax; first compound 0.2 µM) | relative viability (BMX-IN-1 + Navitoclax; first compound 0.6325 µM) | relative viability (BMX-IN-1 + Navitoclax; first compound 2 µM) | relative viability (BMX-IN-1 + Alpelisib; first compound 0.02 µM) | relative viability (BMX-IN-1 + Alpelisib; first compound 0.2 µM) | relative viability (BMX-IN-1 + Alpelisib; first compound 0.6325 µM) | relative viability (BMX-IN-1 + Alpelisib; first compound 2 µM) | relative viability (PAC-1 + Dasatinib; first compound 0.02 µM) | relative viability (PAC-1 + Dasatinib; first compound 0.06325 µM) | relative viability (PAC-1 + Dasatinib; first compound 0.2 µM) | relative viability (PAC-1 + Dasatinib; first compound 2 µM) | relative viability (BMX-IN-1 + Foretinib; first compound 0.02 µM) | relative viability (BMX-IN-1 + Foretinib; first compound 0.2 µM) | relative viability (BMX-IN-1 + Foretinib; first compound 0.6325 µM) | relative viability (BMX-IN-1 + Foretinib; first compound 2 µM) |
| --- | --- | --- | --- | --- | --- | --- | --- | --- | --- | --- | --- | --- | --- | --- | --- | --- | --- | --- | --- | --- |
| HCC-15 | 0.373 | 0.38 | 0.419 | 0.41 | 0.768 | 0.726 | 0.706 | 0.73 | 1.08 | 1.02 | 0.924 | 0.882 | 0.631 | 0.675 | 0.606 | 0.619 | 1.24 | 1.13 | 1.11 | 1.02 |
| 201T | 0.732 | 0.717 | 0.687 | 0.717 | 1.14 | 1.21 | 1.18 | 1.2 | 1.02 | 1.02 | 0.987 | 1.02 | 0.571 | 0.595 | 0.589 | 0.58 | 1.25 | 1.14 | 0.912 | 1.12 |
| LCLC-103H | 0.636 | 0.697 | 0.708 | 0.714 |  |  |  |  | 1.01 | 0.972 | 1.09 | 0.875 | 0.485 | 0.472 | 0.409 | 0.487 | 0.879 | 0.78 | 0.882 | 0.735 |
| RERF-LC-KJ | 0.901 | 0.91 | 0.791 | 0.79 | 0.821 | 0.994 | 1.3 | 0.749 | 0.787 | 0.868 | 0.856 | 0.899 | 0.826 | 0.812 | 0.775 | 0.786 | 0.971 | 1.02 | 1.08 | 0.868 |
| NCI-H1650 | 0.538 | 0.54 | 0.335 | 0.542 | 1.16 | 1.25 | 1.36 | 1.25 |  |  |  |  | 0.363 | 0.305 | 0.263 | 0.361 | 1.05 | 1.46 | 1.2 | 1.17 |
| NCI-H650 | 0.871 | 1.02 | 0.933 | 1.27 |  |  |  |  | 1.2 | 1.19 | 1.27 | 1.1 | 0.426 | 0.455 | 0.406 | 0.45 | 1.06 | 1.01 | 1.12 | 1.1 |
| Calu-6 |  |  |  |  | 1.08 | 1.06 | 0.902 | 0.823 | 0.974 | 1.13 | 1.15 | 0.919 |  |  |  |  | 0.918 | 1.07 | 0.908 | 0.776 |
| NCI-H1703 |  |  |  |  | 1.25 | 1.3 | 1.29 | 0.942 | 0.359 | 0.254 | 0.269 | 0.252 |  |  |  |  | 0.358 | 0.351 | 0.298 | 0.322 |
| IA-LM |  |  |  |  | 0.937 | 0.796 | 0.807 | 0.722 | 0.854 | 0.697 | 1.07 | 0.916 |  |  |  |  | 1.53 | 1.31 | 1.15 | 1.21 |
| NCI-H661 | 0.585 | 0.591 | 0.581 | 0.585 |  |  |  |  | 0.675 | 0.889 | 0.758 | 0.692 | 0.992 | 1 | 0.89 | 0.892 | 1.16 | 0.961 | 1.11 | 1.02 |
| NCI-H1623 |  |  |  |  |  |  |  |  |  |  |  |  | 0.513 | 0.556 | 0.605 | 0.533 | 0.853 | 1.02 | 0.798 | 0.788 |
| ChaGo-K-1 | 0.951 | 0.917 | 0.837 | 0.94 | 0.937 | 0.988 | 1.27 | 0.531 |  |  |  |  | 0.653 | 0.647 | 0.534 | 0.619 | 1.09 | 0.938 | 0.821 | 0.915 |
| NCI-H2342 | 1.16 | 0.816 | 0.697 | 0.83 |  |  |  |  |  |  |  |  | 0.302 | 0.311 | 0.295 | 0.302 | 1.06 | 1.04 | 1.04 | 1.24 |
| ABC-1 |  |  |  |  |  |  |  |  | 0.98 | 1.2 | 1.22 | 1.12 | 0.501 | 0.495 | 0.541 | 0.484 | 1.21 | 0.999 | 1.19 | 0.955 |
| NCI-H522 | 0.675 | 0.915 | 0.848 | 0.77 |  |  |  |  |  |  |  |  | 0.881 | 0.91 | 0.894 | 0.899 |  |  |  |  |
| HCC-44 | 1.05 | 1.08 | 1.07 | 1.02 | 1.25 | 1.16 | 1.13 | 0.989 | 0.869 | 0.905 | 1.01 | 0.794 |  |  |  |  |  |  |  |  |
| NCI-H1792 | 0.475 | 0.402 | 0.392 | 0.468 | 0.559 | 0.632 | 0.49 | 0.724 | 0.585 | 0.473 | 0.579 | 0.684 | 0.996 | 0.77 | 0.763 | 0.755 |  |  |  |  |
| NCI-H1648 | 0.388 | 0.525 | 0.445 | 0.504 |  |  |  |  |  |  |  |  |  |  |  |  |  |  |  |  |
| NCI-H358 | 0.128 | 0.121 | 0.164 | 0.128 |  |  |  |  | 0.861 | 0.881 | 0.937 | 0.81 | 0.179 | 0.164 | 0.158 | 0.135 | 0.855 | 0.777 | 0.887 | 0.701 |
